In patent publication US12723063B2, “GIPR-agonist compounds” (Eli Lilly and Company, priority 2019, dated 2026):
pKi: −log10 of the molar value. *1 amine or outer side, *2 acyl side, *3 side chain or, on linkers, in order; H or OH if unused. Where a SMILES comes first, the peptide text is derived from it. Side-chain parts run from the residue outwards. [ ]: non-standard residue; d: D form. The star is where a group is joined. C20 diacid = O=C(O)CCCCCCCCCCCCCCCCCCC(=O)*; C18 diacid = O=C(O)CCCCCCCCCCCCCCCCC(=O)*; αMePhe(2-F) = C[C@](N)(Cc1ccccc1F)C(=O)O; γGlu = O=C(O)[C@H](CCC(=O)[*:2])N[*:1]; αMeF = C[C@](N)(Cc1ccccc1)C(=O)O; 4Pal = N[C@@H](Cc1ccncc1)C(=O)O; AEEA = NCCOCCOCC(=O)O; Aib = CC(C)(N)C(=O)O

Assays:
[1] = biological target: T1, human GcgR (Homo sapiens, UniProt P47871); experiment: [125I]-Glucagon binding, SPA with WGA beads, 0.1% bacitracin; conditions: geometric mean, read-out: hGcgR Ki
T1 construct: expressed in transfected cells; crude membranes
T1 sequence (P47871 26-477): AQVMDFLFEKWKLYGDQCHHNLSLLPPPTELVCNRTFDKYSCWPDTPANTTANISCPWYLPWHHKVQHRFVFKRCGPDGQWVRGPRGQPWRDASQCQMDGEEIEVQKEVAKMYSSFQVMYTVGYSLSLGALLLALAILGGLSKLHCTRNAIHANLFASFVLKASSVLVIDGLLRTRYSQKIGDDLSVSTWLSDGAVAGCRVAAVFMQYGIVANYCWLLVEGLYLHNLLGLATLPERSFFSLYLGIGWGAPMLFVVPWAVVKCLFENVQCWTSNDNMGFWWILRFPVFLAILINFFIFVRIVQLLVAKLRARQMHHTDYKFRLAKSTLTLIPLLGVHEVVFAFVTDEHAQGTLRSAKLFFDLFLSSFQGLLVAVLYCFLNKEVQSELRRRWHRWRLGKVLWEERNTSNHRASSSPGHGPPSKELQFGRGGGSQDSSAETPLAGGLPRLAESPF
How it was run: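 SPA competition binding with WGA beads on crude membranes from HEK293 cells stably expressing hGcgR. Buffer: 25 mM HEPES pH 7.4, 2.5 mM CaCl2, 1 mM MgCl2, 0.1% bacitracin, 0.003% Tween-20; 10-point 3-fold dilutions, NSB with 1 μM Gcg.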

[2] = biological target: T2, human GLP-1 receptor (GLP-1R) (Homo sapiens, UniProt P43220); experiment: cAMP functional assay (HTRF) in HEK293 cells in presence of 0.1% casein; assay type: cell-based; conditions: HEK293 cells expressing human GLP-1R, geometric mean, read-out: hGLP1R cAMP Rel EC50 nM (SEM, n)
T2 construct: expressed in transfected cells; host or cells: HEK293
T2 sequence (P43220 24-463): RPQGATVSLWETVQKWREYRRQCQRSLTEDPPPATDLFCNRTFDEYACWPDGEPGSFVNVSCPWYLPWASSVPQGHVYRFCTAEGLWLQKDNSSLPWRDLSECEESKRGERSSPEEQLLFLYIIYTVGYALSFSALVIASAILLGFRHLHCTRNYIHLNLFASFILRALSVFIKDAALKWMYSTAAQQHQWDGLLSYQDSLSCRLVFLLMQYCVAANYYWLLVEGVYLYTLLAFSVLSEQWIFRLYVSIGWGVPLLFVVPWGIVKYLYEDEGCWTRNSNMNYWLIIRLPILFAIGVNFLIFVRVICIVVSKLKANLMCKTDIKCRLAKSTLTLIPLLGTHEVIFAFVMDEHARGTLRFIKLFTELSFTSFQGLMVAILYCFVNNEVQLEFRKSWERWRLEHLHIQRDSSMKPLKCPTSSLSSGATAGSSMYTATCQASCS

Structure (SMILES) | pKi [1] | EC50 [2] [nM]
CC[C@H](C)[C@H](NC(=O)[C@H](CO)NC(=O)[C@H](Cc1ccc(O)cc1)NC(=O)[C@H](CC(=O)O)NC(=O)[C@H](CO)NC(=O)[C@@H](NC(=O)[C@H](Cc1ccccc1)NC(=O)[C@@H](NC(=O)CNC(=O)[C@H](CCC(=O)O)NC(=O)C(C)(C)NC(=O)[C@@H](N)Cc1ccc(O)cc1)[C@@H](C)O)[C@@H](C)CC)C(=O)N[C@@H](C)C(=O)N[C@@H](CC(C)C)C(=O)N[C@@H](CC(=O)O)C(=O)N[C@@H](CCCCN)C(=O)N[C@@H](CCCCNC(=O)COCCOCCNC(=O)COCCOCCNC(=O)CC[C@H](NC(=O)CCCCCCCCCCCCCCCCC(=O)O)C(=O)O)C(=O)N[C@@H](Cc1c[nH]cn1)C(=O)N[C@@H](CCC(N)=O)C(=O)NC(C)(C)C(=O)N[C@@H](CC(=O)O)C(=O)N[C@@H](Cc1ccccc1)C(=O)N[C@H](C(=O)N[C@@H](CCC(=O)O)C(=O)N[C@@H](Cc1ccncc1)C(=O)N[C@@H](CC(C)C)C(=O)N[C@@H](CC(C)C)C(=O)N[C@@H](C)C(=O)NCC(=O)NCC(=O)N1CCC[C@H]1C(=O)N[C@@H](CO)C(=O)N[C@@H](CO)C(=O)NCC(=O)N[C@@H](C)C(=O)N1CCC[C@H]1C(=O)N1CCC[C@H]1C(=O)N1CCC[C@H]1C(=O)N[C@@H](CO)C(N)=O)C(C)C [Example 21] (H-Y[Aib]EGTFISDYSIALDKK([AEEA-AEEA-γGlu-C18 diacid])HQ[Aib]DFVE[4Pal]LLAGGPSSGAPPPS-NH2) | < 5.82 | > 5000
CC[C@H](C)[C@H](NC(=O)[C@H](CO)NC(=O)[C@H](Cc1ccc(O)cc1)NC(=O)[C@H](CC(=O)O)NC(=O)[C@H](CO)NC(=O)[C@@H](NC(=O)[C@H](Cc1ccccc1)NC(=O)[C@@H](NC(=O)CNC(=O)[C@H](CCC(=O)O)NC(=O)C(C)(C)NC(=O)[C@@H](N)Cc1ccc(O)cc1)[C@@H](C)O)[C@@H](C)CC)C(=O)N[C@@H](CC(C)C)C(=O)N[C@@H](CC(C)C)C(=O)N[C@@H](CC(=O)O)C(=O)N[C@@H](CCCCN)C(=O)N[C@@H](CCCCNC(=O)COCCOCCNC(=O)COCCOCCNC(=O)CC[C@H](NC(=O)CCCCCCCCCCCCCCCCC(=O)O)C(=O)O)C(=O)N[C@@H](Cc1c[nH]cn1)C(=O)N[C@@H](CCC(N)=O)C(=O)NC(C)(C)C(=O)N[C@@H](CC(=O)O)C(=O)N[C@@H](Cc1ccccc1)C(=O)N[C@H](C(=O)N[C@@H](CCC(=O)O)C(=O)N[C@@H](Cc1ccncc1)C(=O)N[C@@H](CC(C)C)C(=O)N[C@@H](CC(C)C)C(=O)N[C@@H](C)C(=O)NCC(=O)NCC(=O)N1CCC[C@H]1C(=O)N[C@@H](CO)C(=O)N[C@@H](CO)C(=O)NCC(=O)N[C@@H](C)C(=O)N1CCC[C@H]1C(=O)N1CCC[C@H]1C(=O)N1CCC[C@H]1C(=O)N[C@@H](CO)C(N)=O)C(C)C [Example 22] | < 5.86 | > 5000
CC[C@H](C)[C@H](NC(=O)[C@H](CO)NC(=O)[C@H](Cc1ccc(O)cc1)NC(=O)[C@H](CC(=O)O)NC(=O)[C@H](CO)NC(=O)[C@@H](NC(=O)[C@](C)(Cc1ccccc1)NC(=O)[C@@H](NC(=O)CNC(=O)[C@H](CCC(=O)O)NC(=O)C(C)(C)NC(=O)[C@@H](N)Cc1ccc(O)cc1)[C@@H](C)O)[C@@H](C)CC)C(=O)N[C@@H](C)C(=O)N[C@@H](CC(C)C)C(=O)N[C@@H](CC(=O)O)C(=O)N[C@@H](CCCCN)C(=O)N[C@@H](CCCCNC(=O)COCCOCCNC(=O)COCCOCCNC(=O)CC[C@H](NC(=O)CCCCCCCCCCCCCCCCC(=O)O)C(=O)O)C(=O)N[C@@H](Cc1c[nH]cn1)C(=O)N[C@@H](CCC(N)=O)C(=O)NC(C)(C)C(=O)N[C@@H](CC(=O)O)C(=O)N[C@@H](Cc1ccccc1)C(=O)N[C@H](C(=O)N[C@@H](CCC(=O)O)C(=O)N[C@@H](Cc1ccncc1)C(=O)N[C@@H](CC(C)C)C(=O)N[C@@H](CC(C)C)C(=O)N[C@@H](C)C(=O)NCC(=O)NCC(=O)N1CCC[C@H]1C(=O)N[C@@H](CO)C(=O)N[C@@H](CO)C(=O)NCC(=O)N[C@@H](C)C(=O)N1CCC[C@H]1C(=O)N1CCC[C@H]1C(=O)N1CCC[C@H]1C(=O)N[C@@H](CO)C(N)=O)C(C)C [Example 23] (H-Y[Aib]EGT[αMeF]ISDYSIALDKK([AEEA-AEEA-γGlu-C18 diacid])HQ[Aib]DFVE[4Pal]LLAGGPSSGAPPPS-NH2) | 6.49 | 206
CC[C@H](C)[C@H](NC(=O)[C@H](Cc1ccccc1)NC(=O)[C@@H](NC(=O)CNC(=O)[C@H](CCC(=O)O)NC(=O)C(C)(C)NC(=O)[C@@H](N)Cc1ccc(O)cc1)[C@@H](C)O)C(=O)N[C@@H](CO)C(=O)N[C@@H](CC(=O)O)C(=O)N[C@@H](Cc1ccc(O)cc1)C(=O)N[C@@H](CO)C(=O)N[C@H](C(=O)NC(C)(C)C(=O)N[C@@H](CC(C)C)C(=O)N[C@@H](CC(=O)O)C(=O)N[C@@H](CCCCN)C(=O)N[C@@H](CCCCNC(=O)COCCOCCNC(=O)COCCOCCNC(=O)CC[C@H](NC(=O)CCCCCCCCCCCCCCCCC(=O)O)C(=O)O)C(=O)N[C@@H](Cc1c[nH]cn1)C(=O)N[C@@H](CCC(N)=O)C(=O)NC(C)(C)C(=O)N[C@@H](CC(=O)O)C(=O)N[C@@H](Cc1ccccc1)C(=O)N[C@H](C(=O)N[C@@H](CCC(=O)O)C(=O)N[C@@H](Cc1ccncc1)C(=O)N[C@@H](CC(C)C)C(=O)N[C@@H](CC(C)C)C(=O)N[C@@H](C)C(=O)NCC(=O)NCC(=O)N1CCC[C@H]1C(=O)N[C@@H](CO)C(=O)N[C@@H](CO)C(=O)NCC(=O)N[C@@H](C)C(=O)N1CCC[C@H]1C(=O)N1CCC[C@H]1C(=O)N1CCC[C@H]1C(=O)N[C@@H](CO)C(N)=O)C(C)C)[C@@H](C)CC [Example 24] | < 6.02 | > 5000
CC[C@H](C)[C@H](NC(=O)[C@H](CO)NC(=O)[C@H](Cc1ccc(O)cc1)NC(=O)[C@H](CC(=O)O)NC(=O)[C@H](CO)NC(=O)[C@@H](NC(=O)[C@](C)(Cc1ccccc1)NC(=O)[C@@H](NC(=O)CNC(=O)[C@H](CCC(=O)O)NC(=O)C(C)(C)NC(=O)[C@@H](N)Cc1ccc(O)cc1)[C@@H](C)O)[C@@H](C)CC)C(=O)N[C@@H](C)C(=O)N[C@@H](CC(C)C)C(=O)N[C@@H](CC(=O)O)C(=O)N[C@@H](CCCCN)C(=O)N[C@@H](CCCCNC(=O)COCCOCCNC(=O)COCCOCCNC(=O)CC[C@H](NC(=O)CCCCCCCCCCCCCCCCCCC(=O)O)C(=O)O)C(=O)N[C@@H](Cc1c[nH]cn1)C(=O)N[C@@H](CCC(N)=O)C(=O)NC(C)(C)C(=O)N[C@@H](CCC(=O)O)C(=O)N[C@@H](Cc1ccccc1)C(=O)N[C@H](C(=O)N[C@@H](CC(N)=O)C(=O)N[C@@H](Cc1c[nH]c2ccccc12)C(=O)N[C@@H](CC(C)C)C(=O)N[C@@H](CC(C)C)C(=O)N[C@@H](C)C(=O)NCC(=O)NCC(=O)N1CCC[C@H]1C(=O)N[C@@H](CO)C(=O)N[C@@H](CO)C(=O)NCC(=O)N[C@@H](C)C(=O)N1CCC[C@H]1C(=O)N1CCC[C@H]1C(=O)N1CCC[C@H]1C(=O)N[C@@H](CO)C(N)=O)C(C)C [Example 25] (H-Y[Aib]EGT[αMeF]ISDYSIALDKK([AEEA-AEEA-γGlu-C20 diacid])HQ[Aib]EFVNWLLAGGPSSGAPPPS-NH2) | 7.00 | 8.39
CC[C@H](C)[C@H](NC(=O)[C@H](CO)NC(=O)[C@H](Cc1ccc(O)cc1)NC(=O)[C@H](CC(=O)O)NC(=O)[C@H](CO)NC(=O)[C@@H](NC(=O)[C@](C)(Cc1ccccc1F)NC(=O)[C@@H](NC(=O)CNC(=O)[C@H](CCC(=O)O)NC(=O)C(C)(C)NC(=O)[C@@H](N)Cc1ccc(O)cc1)[C@@H](C)O)[C@@H](C)CC)C(=O)N[C@@H](C)C(=O)N[C@@H](CC(C)C)C(=O)N[C@@H](CC(=O)O)C(=O)N[C@@H](CCCCN)C(=O)N[C@@H](CCCCNC(=O)COCCOCCNC(=O)COCCOCCNC(=O)CC[C@H](NC(=O)CCCCCCCCCCCCCCCCCCC(=O)O)C(=O)O)C(=O)N[C@@H](Cc1c[nH]cn1)C(=O)N[C@@H](CCC(N)=O)C(=O)NC(C)(C)C(=O)N[C@@H](CCC(=O)O)C(=O)N[C@@H](Cc1ccccc1)C(=O)N[C@H](C(=O)N[C@@H](CC(N)=O)C(=O)N[C@@H](Cc1c[nH]c2ccccc12)C(=O)N[C@@H](CC(C)C)C(=O)N[C@@H](CC(C)C)C(=O)N[C@@H](C)C(=O)NCC(=O)NCC(=O)N1CCC[C@H]1C(=O)N[C@@H](CO)C(=O)N[C@@H](CO)C(=O)NCC(=O)N[C@@H](C)C(=O)N1CCC[C@H]1C(=O)N1CCC[C@H]1C(=O)N1CCC[C@H]1C(=O)N[C@@H](CO)C(N)=O)C(C)C [Example 26] (H-Y[Aib]EGT[αMePhe(2-F)]ISDYSIALDKK([AEEA-AEEA-γGlu-C20 diacid])HQ[Aib]EFVNWLLAGGPSSGAPPPS-NH2) | 7.13 | 5.69
CC[C@H](C)[C@H](NC(=O)[C@H](CO)NC(=O)[C@H](Cc1ccc(O)cc1)NC(=O)[C@H](CC(=O)O)NC(=O)[C@H](CO)NC(=O)[C@@H](NC(=O)[C@H](Cc1ccccc1)NC(=O)[C@@H](NC(=O)CNC(=O)[C@H](CCC(=O)O)NC(=O)[C@@H](C)NC(=O)[C@@H](N)Cc1ccc(O)cc1)[C@@H](C)O)[C@@H](C)CC)C(=O)N[C@@H](CC(C)C)C(=O)N[C@@H](CC(C)C)C(=O)N[C@@H](CC(=O)O)C(=O)N[C@@H](CCCCN)C(=O)N[C@@H](CCCCNC(=O)COCCOCCNC(=O)COCCOCCNC(=O)CC[C@H](NC(=O)CCCCCCCCCCCCCCCCC(=O)O)C(=O)O)C(=O)N[C@@H](C)C(=O)N[C@@H](CCC(N)=O)C(=O)NC(C)(C)C(=O)N[C@@H](CCC(=O)O)C(=O)N[C@@H](Cc1ccccc1)C(=O)N[C@H](C(=O)N[C@@H](CCC(N)=O)C(=O)N[C@@H](Cc1c[nH]c2ccccc12)C(=O)N[C@@H](CC(C)C)C(=O)N[C@@H](CC(C)C)C(=O)N[C@@H](C)C(=O)NCC(=O)NCC(=O)N1CCC[C@H]1C(=O)N[C@@H](CO)C(=O)N[C@@H](CO)C(=O)NCC(=O)N[C@@H](C)C(=O)N1CCC[C@H]1C(=O)N1CCC[C@H]1C(=O)N1CCC[C@H]1C(=O)N[C@@H](CO)C(N)=O)C(C)C [Example 27] (H-Y[dA]EGTFISDYSILLDKK([AEEA-AEEA-γGlu-C18 diacid])AQ[Aib]EFVQWLLAGGPSSGAPPPS-NH2) | 6.40 | > 5000
